In ChEMBL document CHEMBL1157989, “Novel antioxidant compounds from tart cherries (Prunus cerasus)” (J Nat Prod, 1999):
Activity calls are given as the source filed them. The rule behind the calls is not given here.

experiment: Antioxidant activity against Fe2+-induced lipid peroxidation at 20 uM by fluorescence spectroscopy; type: functional

**Q.** Which Activity does the source give for CC(C)(C)c1cc(O)ccc1O here?
**A.** > 90%

**Q.** For O=C(/C=C/c1ccc(O)c(O)c1)O[C@@H]1CC[C@@H](O)[C@H]1O, which Activity is on record?
**A.** 80%

**Q.** With O=C(/C=C/c1ccc(O)c(O)c1)OC1[C@H](O)CC[C@@H]1O (stereo partly specified) as the compound, how does the Activity read?
**A.** 80%

**Q.** With COC(=O)[C@]1(O)C[C@@H](O)[C@@H](O)[C@H](OC(=O)/C=C/c2ccc(O)c(O)c2)C1 as the compound, how does the Activity read?
**A.** 50%

**Q.** With Cc1cc(C(C)(C)C)c(O)c(C(C)(C)C)c1 as the compound, how does the Activity read?
**A.** > 90%

experiment: Antioxidant activity against Fe2+-induced lipid peroxidation at 100 uM by fluorescence spectroscopy; type: functional

**Q.** With O=C(O)C(O)Cc1ccccc1O (racemic) as the compound, how does the Activity read?
**A.** inactive
